Bounds are passed on as bounds.

The assay deals with T1, recombinant autotaxin (Homo sapiens, UniProt Q13822).
T1 construct: made in house; host or cells: Hi5 insect cells (baculovirus)
Put plainly: Autotaxin assay (Amplex Red, LPC substrate). It is filed as biochemical. Conditions: 75 μM LPC, Amplex Red fluorescence, ten 1:3 dilutions starting at 30 μM. As for the experimental part: Autotaxin activity is measured indirectly by means of Amplex Red Reagent. In this course, Amplex Red is measured as fluorogenic indicator for generated H2O2. Autotaxin converts substrate lysophosphatidylcholine (LPC) to phosphocholine and lysophosphatidylic acid (LPA). After the conversion phosphocholine is reacted with alkaline phosphatase to obtain inorganic phosphate and choline. During the next step choline is oxidized with choline oxidase to yield betaine, whereby H2O2 is generated. H2O2 reacts with Amplex Red Reagent in the presence of peroxidase (Horseradish peroxidase) in an 1:1 stochiometry and yields highly fluorescent resorufin. The generated fluorescence is measured in a reaction-dependent kinetic mode in order to enable subtraction of fluorescence signals of possible other fluorescent compounds that are not part of the reaction from total measured fluorescence.
1.5 μl of a standard solution or of the compounds of the invention are dissolved in 20 mM Hepes pH 7.2 with maximally 7.7% DMSO in individual concentrations. The resulting solution is pre-incubated together with 10 μl (16 ng) of highly purified recombinant autotaxin in a black 384-hole microtiter plate for 30 min at 22° C. Thereafter, the reaction is started through the addition of 5 μL-a-lysophosphatidylcholine (LPC), whereby the final concentration of LPC is 75 μM. The mixture is incubated for 90 min. at 37° C. After the incubation Amplex Red Reagent, peroxidase (Horseradish peroxidase) and choline oxidase are added. The fluorescence is immediately measured at a wavelength of 612 nm with an excitation wavelength of 485 nm in a “Tecan Ultra multimode” fluorescence reader. The activity of autotaxin is indirectly calculated via the amount of detected generated H2O2.
For IC50 analysis, ten serial 1:3 dilutions starting at 30 μM for each compound were run in duplicates.
IC50 values were calculated on normalized data. For normalization, control wells were added to each assay plate and the signal of uninhibited control wells was set to 100%, whereas the signal inhibited by 500 μM C14 LPA, (Avanti Polar Lipids, Cat# 857120P) was set to 0%. Curves were fitted and IC50 values calculated by the following model using proprietary analysis software: Y=Bottom+(100−Bottom)/(1+10^((LogIC50−X)*HillSlope))
Where X is the logarithm of concentration. Y is the response; Y starts at Bottom and goes to Top with a sigmoid shape.
Protein: Recombinant autotaxin (baculoviral Hi5 expression)
Substrate: L-a-lysophosphatidyl choline (chicken egg); Avanti Polar Lipids #830071 P
Standard: C14 LPA, Avanti Polar Lipids, Cat# 857120P
Detection Reagent Amplex Red Reagent; Invitrogen #A12222; dissolved in 1.923 ml of DMSO peroxidase Type VI-A (horseradish), Sigma #P6782; dissolved in 7.45 ml of test buffer, Choline Oxidase; Sigma #C5896; dissolved in 2.47 ml test buffer
Detection Reagent Mix: 1:100 dilution of Amplex Red Regent in test buffer
Test buffer: 200 mM Tris-HCl, Merck, Cat # 1.08219, pH 7.9; 0.1% BSA, lipid free, Roche Cat#775835
By IC50 is commonly meant the concentration that inhibits the measured activity by half. As to `c1ccc(CNc2ncc3c(N4CCCC4)nccc3n2)cc1` [Compound 1, Benzyl-(5-pyrrolidin-1-yl-pyrido[4,3-d]pyrimidin-2-yl)-amine], the IC50 was less than 30 µM.

As for `Fc1ccc(Nc2nccc3nc(NCc4ccccc4)ncc23)cc1` [Compound 2, N2-Benzyl-N5-(4-fluoro-phenyl)-pyrido[4,3-d]pyrimidine-2,5-diamine], the IC50 is less than 30 µM.

For `COc1ccc(Nc2nccc3nc(NCc4ccccc4)ncc23)cc1` [Compound 3, N2-Benzyl-N5-(4-methoxy-phenyl)-pyrido[4,3-d]pyrimidine-2,5-diamine], the IC50 was less than 30 µM.

With `Fc1ccc(Nc2nccc3nc(NCc4ccccc4)ncc23)c(F)c1` [Compound 4, N2-Benzyl-N5-(2,4-difluoro-phenyl)-pyrido[4,3-d]pyrimidine-2,5-diamine], the IC50 is less than 30 µM.

On to `c1ccc(CNc2ncc3c(Nc4ccc5c(c4)OCO5)nccc3n2)cc1` [Compound 5, N5-Benzo[1,3]dioxol-5-yl-N2-benzyl-pyrido[4,3-d]pyrimidine-2,5-diamine], for which the IC50 was less than 30 µM.

Regarding `COc1ccc(Nc2nccc3nc(NCc4ccccc4)ncc23)cc1OC` [Compound 6, N2-Benzyl-N5-(3,4-dimethoxy-phenyl)-pyrido[4,3-d]pyrimidine-2,5-diamine], the IC50 was less than 30 µM.

Regarding `Cc1cc(F)ccc1Nc1nccc2nc(NCc3ccccc3)ncc12` [Compound 7, N2-Benzyl-N5-(4-fluoro-2-methyl-phenyl)-pyrido[4,3-d]pyrimidine-2,5-diamine], the IC50 is less than 30 µM.

As to `Clc1ccccc1CNc1ncc2c(N3CCCC3)nccc2n1` [Compound 8, (2-Chloro-benzyl)-(5-pyrrolidin-1-yl-pyrido[4,3-d]pyrimidin-2-yl)-amine], the IC50 was less than 5 µM.

Regarding `COc1ccc(Nc2nccc3nc(NCc4ccccc4Cl)ncc23)cc1` [Compound 9, N2-(2-Chloro-benzyl)-N5-(4-methoxy-phenyl)-pyrido[4,3-d]pyrimidine-2,5-diamine], the IC50 is less than 30 µM.

On to `Clc1ccccc1CNc1ncc2c(NCc3ccccc3Cl)nccc2n1` [Compound 10, N2,N5-Bis-(2-chloro-benzyl)-pyrido[4,3-d]pyrimidine-2,5-diamine], for which the IC50 was less than 30 µM.

With `Clc1ccccc1CNc1ncc2c(NCc3cccnc3)nccc2n1` [Compound 11, N2-(2-Chloro-benzyl)-N5-pyridin-3-ylmethyl-pyrido[4,3-d]pyrimidine-2,5-diamine], the concentration for half-maximal inhibition (IC50) was less than 30 µM.

As to `COc1ccc(Nc2nccc3nc(NCc4ccccc4Cl)ncc23)cc1OC` [Compound 12, N2-(2-Chloro-benzyl)-N5-(3,4-dimethoxy-phenyl)-pyrido[4,3-d]pyrimidine-2,5-diamine], the IC50 was less than 30 µM.

As for `CC(=O)c1ccc(Nc2nccc3nc(NCc4ccccc4Cl)ncc23)cc1` [Compound 13, 1-{4-[2-(2-Chloro-benzylamino)-pyrido[4,3-d]pyrimidin-5-ylamino]-phenyl}-ethanone], the IC50 is less than 30 µM.

In the case of `COc1ccc(Nc2nccc3nc(NCc4ccccc4Cl)ncc23)c(OC)c1` [Compound 14, N2-(2-Chloro-benzyl)-N5-(2,4-dimethoxy-phenyl)-pyrido[4,3-d]pyrimidine-2,5-diamine], the half-maximal inhibitory concentration (IC50) was less than 30 µM.

Turning to `CC(C)OCCCNc1nccc2nc(NCc3ccccc3Cl)ncc12` [Compound 15, N2-(2-Chloro-benzyl)-N5-(3-isopropoxy-propyl)-pyrido[4,3-d]pyrimidine-2,5-diamine], the concentration for half-maximal inhibition (IC50) was less than 30 µM.

For `Clc1ccccc1CNc1ncc2c(NCCCN3CCCCC3)nccc2n1` [Compound 16, N2-(2-Chloro-benzyl)-N5-(3-piperidin-1-yl-propyl)-pyrido[4,3-d]pyrimidine-2,5-diamine], the IC50 is less than 30 µM.

Regarding `Clc1ccccc1CNc1ncc2c(NCCCN3CCCC3)nccc2n1` [Compound 17, N2-(2-Chloro-benzyl)-N5-(3-pyrrolidin-1-yl-propyl)-pyrido[4,3-d]pyrimidine-2,5-diamine], the IC50 was less than 30 µM.

Regarding `Clc1ccccc1CNc1ncc2c(NCCN3CCCCC3)nccc2n1` [Compound 18, N2-(2-Chloro-benzyl)-N5-(2-piperidin-1-yl-ethyl)-pyrido[4,3-d]pyrimidine-2,5-diamine], the IC50 was less than 30 µM.

As for `Cc1ccc(CNc2ncc3c(Nc4ccc(F)cc4C)nccc3n2)cc1` [Compound 19, N5-(4-Fluoro-2-methyl-phenyl)-N2-(4-methyl-benzyl)-pyrido[4,3-d]pyrimidine-2,5-diamine], the IC50 was less than 30 µM.

In the case of `Fc1ccc(CNc2ncc3c(N4CCCC4)nccc3n2)cc1` [Compound 20, (4-Fluoro-benzyl)-(5-pyrrolidin-1-yl-pyrido[4,3-d]pyrimidin-2-yl)-amine], the half-maximal inhibitory concentration (IC50) was less than 30 µM.

On to `Fc1ccc(CNc2ncc3c(Nc4ccc(F)cc4)nccc3n2)cc1` [Compound 21, N2-(4-Fluoro-benzyl)-N5-(4-fluoro-phenyl)-pyrido[4,3-d]pyrimidine-2,5-diamine], for which the IC50 was less than 30 µM.

As to `Cc1ccccc1Nc1nccc2nc(NCc3ccc(F)cc3)ncc12` [Compound 22, N2-(4-Fluoro-benzyl)-N5-o-tolyl-pyrido[4,3-d]pyrimidine-2,5-diamine], the IC50 is less than 30 µM.

Turning to `COc1ccc(Nc2nccc3nc(NCc4ccc(F)cc4)ncc23)cc1` [Compound 23, N2-(4-Fluoro-benzyl)-N5-(4-methoxy-phenyl)-pyrido[4,3-d]pyrimidine-2,5-diamine], the IC50 is less than 30 µM.

As to `Fc1ccc(CNc2ncc3c(Nc4ccccc4F)nccc3n2)cc1` [Compound 24, N2-(4-Fluoro-benzyl)-N5-(2-fluoro-phenyl)-pyrido[4,3-d]pyrimidine-2,5-diamine], the concentration for half-maximal inhibition (IC50) is less than 30 µM.

Regarding `Fc1ccc(CNc2ncc3c(Nc4ccc(F)cc4F)nccc3n2)cc1` [Compound 25, N5-(2,4-Difluoro-phenyl)-N2-(4-fluoro-benzyl)-pyrido[4,3-d]pyrimidine-2,5-diamine], the IC50 was less than 30 µM.

Regarding `Fc1ccc(CNc2ncc3c(Nc4ccc5c(c4)OCO5)nccc3n2)cc1` [Compound 26, N5-Benzo[1,3]dioxol-5-yl-N2-(4-fluoro-benzyl)-pyrido[4,3-d]pyrimidine-2,5-diamine], the IC50 is less than 30 µM.

Take `COc1ccc(Nc2nccc3nc(NCc4ccc(F)cc4)ncc23)cc1OC` [Compound 27, N5-(3,4-Dimethoxy-phenyl)-N2-(4-fluoro-benzyl)-pyrido[4,3-d]pyrimidine-2,5-diamine]: the 50% inhibitory concentration (IC50) is less than 30 µM.

On to `Cc1cc(F)ccc1Nc1nccc2nc(NCc3ccc(F)cc3)ncc12` [Compound 28, N2-(4-Fluoro-benzyl)-N5-(4-fluoro-2-methyl-phenyl)-pyrido[4,3-d]pyrimidine-2,5-diamine], for which the half-inhibitory concentration (IC50) is less than 30 µM.

For `Fc1ccc(CNc2ncc3c(NCc4ccc5nonc5c4)nccc3n2)cc1` [Compound 29, N5-Benzo[1,2,5]oxadiazol-5-ylmethyl-N2-(4-fluoro-benzyl)-pyrido[4,3-d]pyrimidine-2,5-diamine], the IC50 is less than 30 µM.

Turning to `CC(C)CNc1nccc2nc(NCc3ccc(F)cc3)ncc12` [Compound 30, N2-(4-Fluoro-benzyl)-N5-isobutyl-pyrido[4,3-d]pyrimidine-2,5-diamine], the IC50 was less than 30 µM.

With `COc1ccccc1CNc1ncc2c(N3CCCC3)nccc2n1` [Compound 31, (2-Methoxy-benzyl)-(5-pyrrolidin-1-yl-pyrido[4,3-d]pyrimidin-2-yl)-amine], the 50% inhibitory concentration (IC50) was less than 30 µM.

Values taken from patent US8530650B2, “2, 5-diamino-substituted pyrido [4, 3-D] pyrimidines as autotaxin inhibitors against cancer” (MERCK PATENT GmbH, priority 2008, dated 2013).
